Laboratory results reported in the supplement of paper PMC8671470.
± gives the standard deviation of the averaged measurements.

What follows are compounds tested on HL-60 (assay: cell viability (% survival relative to DMSO control); higher = less cytotoxic). Conditions: 10 µM; 72 h; co-treatment: AZD3965 100 nM.
How it was run: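 For each screen, HL-60 cells in RPMI 1640 with 10% FBS carried either DMSO or 100 nM of one of three metabolic inhibitors while the full library was applied at five tenfold concentrations, 1–10,000 nM, in duplicate. Plates were 384-well and were kept 72 h at 37 °C, 5% CO2. Viability, measured by CellTiter-Glo, was normalised to wells with DMSO and with 10 μM proteasome inhibitor. Where area under the curve appears, it was fitted by four-parameter log-logistic models in drc and PharmacoGx.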

Row | SMILES | cell viability
1 | Cc1nc(-c2ccccc2)sc1C(=O)Nc1ccc(S(N)(=O)=O)cc1 | 99.97 ± 0.89%
2 | O=C(O)CC[N+](=O)[O-] [3-nitropropionic acid] | 97.6 ± 4.4%
3 | C=CC(=O)c1ccc(O)cc1 [4-Acryloylphenol] | 63.5 ± 5.5%
4 | Cc1[nH]nc(C(F)(F)F)c1Cc1sc2c(c1C(=O)N1C[C@](C)(O)CO1)c(=O)n(C)c(=O)n2C(C)C [AZD3965] | 102 ± 1.6%
5 | O=c1cc(-c2ccccc2)oc2c1ccc1ccccc12 [Alpha-Naphtoflavone] | 101.2 ± 1%

Same assay, conditions: 10 µM; 72 h; co-treatment: DMSO vehicle

Row | SMILES | cell viability
6 | CN(CCCOc1ccc(Cc2ccccc2)cc1)CCC(=O)O | 98.6 ± 0.22%
7 | COc1ccc2c(NC(=O)Nc3cccc(C(F)(F)F)n3)ccnc2c1 | 111 ± 1.3%
8 | O=c1cc(N2CCOCC2)oc2c(-c3ccccc3)cccc12 | 86 ± 1.8%
9 | O=C1C(SCCO)=C(SCCO)C(=O)c2ccccc21 | 7.09 ± 8.5%
10 | Cc1nc(-c2ccccc2)sc1C(=O)Nc1ccc(S(N)(=O)=O)cc1 | 98.6 ± 2.6%
11 | O=C(O)CC[N+](=O)[O-] [3-nitropropionic acid] | 101 ± 5.7%
12 | C=CC(=O)c1ccc(O)cc1 [4-Acryloylphenol] | 92.8 ± 3.6%
13 | Cc1[nH]nc(C(F)(F)F)c1Cc1sc2c(c1C(=O)N1C[C@](C)(O)CO1)c(=O)n(C)c(=O)n2C(C)C [AZD3965] | 99.6 ± 4.6%
14 | O=c1cc(-c2ccccc2)oc2c1ccc1ccccc12 [Alpha-Naphtoflavone] | 101 ± 1.2%

Same assay, conditions: 10 µM; 72 h; co-treatment: GSK2194069 100 nM

Row | SMILES | cell viability
15 | CN(CCCOc1ccc(Cc2ccccc2)cc1)CCC(=O)O | 101 ± 5.6%
16 | COc1ccc2c(NC(=O)Nc3cccc(C(F)(F)F)n3)ccnc2c1 | 92.5 ± 9.2%
17 | O=c1cc(N2CCOCC2)oc2c(-c3ccccc3)cccc12 | 84 ± 6.9%
18 | O=C1C(SCCO)=C(SCCO)C(=O)c2ccccc21 | 1.87 ± 0.7%
19 | Cc1nc(-c2ccccc2)sc1C(=O)Nc1ccc(S(N)(=O)=O)cc1 | 96.25 ± 0.77%
20 | O=C(O)CC[N+](=O)[O-] [3-nitropropionic acid] | 96.7 ± 5%
21 | C=CC(=O)c1ccc(O)cc1 [4-Acryloylphenol] | 87.5 ± 4.1%
22 | Cc1[nH]nc(C(F)(F)F)c1Cc1sc2c(c1C(=O)N1C[C@](C)(O)CO1)c(=O)n(C)c(=O)n2C(C)C [AZD3965] | 105 ± 7.1%
23 | O=c1cc(-c2ccccc2)oc2c1ccc1ccccc12 [Alpha-Naphtoflavone] | 98.3 ± 4.6%

Same assay, conditions: 10 µM; 72 h; co-treatment: pictilisib 100 nM

Row | SMILES | cell viability
24 | CN(CCCOc1ccc(Cc2ccccc2)cc1)CCC(=O)O | 93.3 ± 3.2%
25 | COc1ccc2c(NC(=O)Nc3cccc(C(F)(F)F)n3)ccnc2c1 | 121 ± 12%
26 | O=c1cc(N2CCOCC2)oc2c(-c3ccccc3)cccc12 | 79.6 ± 15%
27 | O=C1C(SCCO)=C(SCCO)C(=O)c2ccccc21 | -0.39 ± 0.42%
28 | Cc1nc(-c2ccccc2)sc1C(=O)Nc1ccc(S(N)(=O)=O)cc1 | 99.5 ± 6%
29 | O=C(O)CC[N+](=O)[O-] [3-nitropropionic acid] | 106 ± 16%
30 | C=CC(=O)c1ccc(O)cc1 [4-Acryloylphenol] | 58.5 ± 22%
31 | Cc1[nH]nc(C(F)(F)F)c1Cc1sc2c(c1C(=O)N1C[C@](C)(O)CO1)c(=O)n(C)c(=O)n2C(C)C [AZD3965] | 112 ± 15%
32 | O=c1cc(-c2ccccc2)oc2c1ccc1ccccc12 [Alpha-Naphtoflavone] | 90 ± 3.6%

The compounds below were run on BV-173 (assay: cell viability (% survival relative to DMSO control, bortezomib = 0%); higher = less cytotoxic). Conditions: 1 nM; 72 h.
How it was run: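 Fifteen myeloid leukaemia cell lines were exposed to compounds at 1, 10, 100, 1000 or 10000 nM in 384-well plates for 72 h at 37 °C and 5% CO2. Viability was read by CellTiter-Glo luminescence and normalised, with vehicle as 100% and a 10 µM positive control as 0%. Values are percent survival averaged over duplicates.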

Row | SMILES | cell viability
33 | CN(CCCOc1ccc(Cc2ccccc2)cc1)CCC(=O)O | 96.8%
34 | Cc1c2c(=O)n(-c3ccccc3Cl)[nH]c2cc(=O)n1Cc1ccccn1 | 98%
35 | COc1ccc2c(NC(=O)Nc3cccc(C(F)(F)F)n3)ccnc2c1 | 104%
36 | O=c1cc(N2CCOCC2)oc2c(-c3ccccc3)cccc12 | 176%
37 | O=C1C(SCCO)=C(SCCO)C(=O)c2ccccc21 | 107%
38 | Cc1nc(-c2ccccc2)sc1C(=O)Nc1ccc(S(N)(=O)=O)cc1 | 115%
39 | Cn1cc(-c2ccncc2)c(-c2ccc(OCc3ccc4ccccc4n3)cc2)n1 | 93.5%
40 | O=C(O)CC[N+](=O)[O-] [3-nitropropionic acid] | 93.7%
41 | C=CC(=O)c1ccc(O)cc1 [4-Acryloylphenol] | 82.2%
42 | Cc1[nH]nc(C(F)(F)F)c1Cc1sc2c(c1C(=O)N1C[C@](C)(O)CO1)c(=O)n(C)c(=O)n2C(C)C [AZD3965] | 91.4%
43 | O=c1cc(-c2ccccc2)oc2c1ccc1ccccc12 [Alpha-Naphtoflavone] | 105%

Same assay, conditions: 10 nM; 72 h

Row | SMILES | cell viability
44 | CN(CCCOc1ccc(Cc2ccccc2)cc1)CCC(=O)O | 98.4%
45 | Cc1c2c(=O)n(-c3ccccc3Cl)[nH]c2cc(=O)n1Cc1ccccn1 | 104%
46 | COc1ccc2c(NC(=O)Nc3cccc(C(F)(F)F)n3)ccnc2c1 | 93.6%
47 | O=c1cc(N2CCOCC2)oc2c(-c3ccccc3)cccc12 | 95.7%
48 | O=C1C(SCCO)=C(SCCO)C(=O)c2ccccc21 | 106%
49 | Cc1nc(-c2ccccc2)sc1C(=O)Nc1ccc(S(N)(=O)=O)cc1 | 103%
50 | Cn1cc(-c2ccncc2)c(-c2ccc(OCc3ccc4ccccc4n3)cc2)n1 | 97.7%
51 | O=C(O)CC[N+](=O)[O-] [3-nitropropionic acid] | 93.5%
52 | C=CC(=O)c1ccc(O)cc1 [4-Acryloylphenol] | 86.6%
53 | Cc1[nH]nc(C(F)(F)F)c1Cc1sc2c(c1C(=O)N1C[C@](C)(O)CO1)c(=O)n(C)c(=O)n2C(C)C [AZD3965] | 103%
54 | O=c1cc(-c2ccccc2)oc2c1ccc1ccccc12 [Alpha-Naphtoflavone] | 92.1%

Same assay, conditions: 100 nM; 72 h

Row | SMILES | cell viability
55 | CN(CCCOc1ccc(Cc2ccccc2)cc1)CCC(=O)O | 100%
56 | Cc1c2c(=O)n(-c3ccccc3Cl)[nH]c2cc(=O)n1Cc1ccccn1 | 94.6%
57 | COc1ccc2c(NC(=O)Nc3cccc(C(F)(F)F)n3)ccnc2c1 | 111%
58 | O=c1cc(N2CCOCC2)oc2c(-c3ccccc3)cccc12 | 1.14%
59 | O=C1C(SCCO)=C(SCCO)C(=O)c2ccccc21 | 98.5%
60 | Cc1nc(-c2ccccc2)sc1C(=O)Nc1ccc(S(N)(=O)=O)cc1 | 85.1%
61 | Cn1cc(-c2ccncc2)c(-c2ccc(OCc3ccc4ccccc4n3)cc2)n1 | 93.6%
62 | O=C(O)CC[N+](=O)[O-] [3-nitropropionic acid] | 106%
63 | C=CC(=O)c1ccc(O)cc1 [4-Acryloylphenol] | 104%
